Data on 4 molecules can be found in the supplement of paper PMC10307832.

In one experiment the test system is LOU-NH91. The experiment is described as follows: relative viability (nuclei count vs DMSO), 5 days (fraction); higher = more cells survive. To be noted: first compound 20 µM. The gist of the method: (§1)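 Medians of duplicate plates are given as relative viability. That measure is the nuclei count in treated wells divided by the count in vehicle wells. Counts were taken on 4× images of lung cancer cell lines in 1536-well plates, 5 days after pin-tool dosing the day after seeding with one drug alone or a fixed anchor-drug dose plus five library-drug doses (not always all listed) in √10 steps.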
`COCC1(CO)C(=O)C2CCN1CC2` (stereo unspecified) [PRIMA-1MET] + CS(=O)(=O)CCNCc1ccc(-c2ccc3ncnc(Nc4ccc(OCc5cccc(F)c5)c(Cl)c4)c3c2)o1 [Lapatinib] (partner 2 µM): the relative viability came to 0.496.

In the case of `COCC1(CO)C(=O)C2CCN1CC2` (stereo unspecified) [PRIMA-1MET] + O=C(CCCCCCC(=O)Nc1ccccc1)NO [Vorinostat] (partner 1 µM), the relative viability came out at 0.296.

Molecule `COCC1(CO)C(=O)C2CCN1CC2` (stereo unspecified) [PRIMA-1MET] + Cc1cc(Nc2cc(N3CCN(C)CC3)nc(Sc3ccc(NC(=O)C4CC4)cc3)n2)n[nH]1 [Tozasertib] (partner 0.1 µM) came in with a relative viability of 0.427.

With `COCC1(CO)C(=O)C2CCN1CC2` (stereo unspecified) [PRIMA-1MET] + COc1cccc2cc(-c3nc([C@H]4CC[C@H](C(=O)O)CC4)n4ncnc(N)c34)[nH]c12 [OSI-027] (partner 0.5 µM), the relative viability is 0.468.

Another experiment deals with LXF-289. The experiment is described as above. The note with it: first compound 0.2 µM. The gist of the method: as §1
`COCC1(CO)C(=O)C2CCN1CC2` (stereo unspecified) [PRIMA-1MET] + CS(=O)(=O)CCNCc1ccc(-c2ccc3ncnc(Nc4ccc(OCc5cccc(F)c5)c(Cl)c4)c3c2)o1 [Lapatinib] (partner 2 µM) showed a relative viability of 0.878.

On to `COCC1(CO)C(=O)C2CCN1CC2` (stereo unspecified) [PRIMA-1MET] + O=C(CCCCCCC(=O)Nc1ccccc1)NO [Vorinostat] (partner 1 µM), for which the relative viability turned out to be 0.864.

`COCC1(CO)C(=O)C2CCN1CC2` (stereo unspecified) [PRIMA-1MET] + Cc1cc(Nc2cc(N3CCN(C)CC3)nc(Sc3ccc(NC(=O)C4CC4)cc3)n2)n[nH]1 [Tozasertib] (partner 0.1 µM) returned a relative viability of 0.217.

Turning to `COCC1(CO)C(=O)C2CCN1CC2` (stereo unspecified) [PRIMA-1MET] + COc1cccc2cc(-c3nc([C@H]4CC[C@H](C(=O)O)CC4)n4ncnc(N)c34)[nH]c12 [OSI-027] (partner 0.5 µM), the relative viability was 0.889.

The same experiment, now with this note: first compound 0.6325 µM.
Regarding `COCC1(CO)C(=O)C2CCN1CC2` (stereo unspecified) [PRIMA-1MET] + CS(=O)(=O)CCNCc1ccc(-c2ccc3ncnc(Nc4ccc(OCc5cccc(F)c5)c(Cl)c4)c3c2)o1 [Lapatinib] (partner 2 µM), the relative viability amounted to 0.879.

On to `COCC1(CO)C(=O)C2CCN1CC2` (stereo unspecified) [PRIMA-1MET] + O=C(CCCCCCC(=O)Nc1ccccc1)NO [Vorinostat] (partner 1 µM), for which the relative viability was determined as 0.628.

Regarding `COCC1(CO)C(=O)C2CCN1CC2` (stereo unspecified) [PRIMA-1MET] + Cc1cc(Nc2cc(N3CCN(C)CC3)nc(Sc3ccc(NC(=O)C4CC4)cc3)n2)n[nH]1 [Tozasertib] (partner 0.1 µM), the relative viability was found to be 0.173.

Molecule `COCC1(CO)C(=O)C2CCN1CC2` (stereo unspecified) [PRIMA-1MET] + COc1cccc2cc(-c3nc([C@H]4CC[C@H](C(=O)O)CC4)n4ncnc(N)c34)[nH]c12 [OSI-027] (partner 0.5 µM) gave a relative viability of 0.803.

The experiment is the same for the next values; noted with them: first compound 2 µM.
With `COCC1(CO)C(=O)C2CCN1CC2` (stereo unspecified) [PRIMA-1MET] + CS(=O)(=O)CCNCc1ccc(-c2ccc3ncnc(Nc4ccc(OCc5cccc(F)c5)c(Cl)c4)c3c2)o1 [Lapatinib] (partner 2 µM), the relative viability amounted to 0.979.

Consider `COCC1(CO)C(=O)C2CCN1CC2` (stereo unspecified) [PRIMA-1MET] + O=C(CCCCCCC(=O)Nc1ccccc1)NO [Vorinostat] (partner 1 µM), for which the relative viability stood at 0.79.

The molecule `COCC1(CO)C(=O)C2CCN1CC2` (stereo unspecified) [PRIMA-1MET] + Cc1cc(Nc2cc(N3CCN(C)CC3)nc(Sc3ccc(NC(=O)C4CC4)cc3)n2)n[nH]1 [Tozasertib] (partner 0.1 µM) registered a relative viability of 0.16.

Molecule `COCC1(CO)C(=O)C2CCN1CC2` (stereo unspecified) [PRIMA-1MET] + COc1cccc2cc(-c3nc([C@H]4CC[C@H](C(=O)O)CC4)n4ncnc(N)c34)[nH]c12 [OSI-027] (partner 0.5 µM) came in with a relative viability of 0.527.

Still in this experiment, the particulars now being: first compound 6.325 µM.
Regarding `COCC1(CO)C(=O)C2CCN1CC2` (stereo unspecified) [PRIMA-1MET] + CS(=O)(=O)CCNCc1ccc(-c2ccc3ncnc(Nc4ccc(OCc5cccc(F)c5)c(Cl)c4)c3c2)o1 [Lapatinib] (partner 2 µM), the relative viability came to 0.923.

Molecule `COCC1(CO)C(=O)C2CCN1CC2` (stereo unspecified) [PRIMA-1MET] + O=C(CCCCCCC(=O)Nc1ccccc1)NO [Vorinostat] (partner 1 µM) registered a relative viability of 0.796.

Molecule `COCC1(CO)C(=O)C2CCN1CC2` (stereo unspecified) [PRIMA-1MET] + Cc1cc(Nc2cc(N3CCN(C)CC3)nc(Sc3ccc(NC(=O)C4CC4)cc3)n2)n[nH]1 [Tozasertib] (partner 0.1 µM) returned a relative viability of 0.175.

In turn, `COCC1(CO)C(=O)C2CCN1CC2` (stereo unspecified) [PRIMA-1MET] + COc1cccc2cc(-c3nc([C@H]4CC[C@H](C(=O)O)CC4)n4ncnc(N)c34)[nH]c12 [OSI-027] (partner 0.5 µM) yielded a relative viability of 0.874.

The experiment is the same for the next values; noted with them: first compound 20 µM.
Turning to `COCC1(CO)C(=O)C2CCN1CC2` (stereo unspecified) [PRIMA-1MET] + CS(=O)(=O)CCNCc1ccc(-c2ccc3ncnc(Nc4ccc(OCc5cccc(F)c5)c(Cl)c4)c3c2)o1 [Lapatinib] (partner 2 µM), the relative viability amounted to 0.836.

In turn, `COCC1(CO)C(=O)C2CCN1CC2` (stereo unspecified) [PRIMA-1MET] + O=C(CCCCCCC(=O)Nc1ccccc1)NO [Vorinostat] (partner 1 µM) showed a relative viability of 0.745.

`COCC1(CO)C(=O)C2CCN1CC2` (stereo unspecified) [PRIMA-1MET] + Cc1cc(Nc2cc(N3CCN(C)CC3)nc(Sc3ccc(NC(=O)C4CC4)cc3)n2)n[nH]1 [Tozasertib] (partner 0.1 µM) displayed a relative viability of 0.192.

In the case of `COCC1(CO)C(=O)C2CCN1CC2` (stereo unspecified) [PRIMA-1MET] + COc1cccc2cc(-c3nc([C@H]4CC[C@H](C(=O)O)CC4)n4ncnc(N)c34)[nH]c12 [OSI-027] (partner 0.5 µM), the relative viability turned out to be 0.759.

A further experiment deals with NCI-H1395. Described as above. The note with it: first compound 0.2 µM. The method, boiled down: as §1
The molecule `COCC1(CO)C(=O)C2CCN1CC2` (stereo unspecified) [PRIMA-1MET] + CS(=O)(=O)CCNCc1ccc(-c2ccc3ncnc(Nc4ccc(OCc5cccc(F)c5)c(Cl)c4)c3c2)o1 [Lapatinib] (partner 2 µM) had a relative viability of 0.922.

On to `COCC1(CO)C(=O)C2CCN1CC2` (stereo unspecified) [PRIMA-1MET] + O=C(CCCCCCC(=O)Nc1ccccc1)NO [Vorinostat] (partner 1 µM), for which the relative viability turned out to be 0.623.
